{"source": "paper PMC7413254", "about": "(Nature Communications, 2020)", "key": {"[1]": {"system": "non-expressing oocytes", "experiment": "cells", "assay_type": "cell-based, Xenopus laevis", "conditions": "non-expressing oocytes, total [3H]CQ transport, normalised to the oocyte type control", "in_short": "(§1)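 Oocytes expressing PfCRT isoforms, or non-expressing controls, were incubated 1.5 h at 27.5 °C in ND96 buffer pH 5.5 (96 mM NaCl, 2 mM KCl, 1 mM MgCl2, 1.8 mM CaCl2, 10 mM MES, 10 mM Tris-base), measuring uptake from acidic medium into cytosol. Oocytes were washed ice-cold, SDS-lysed and counted by scintillation.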"}, "[2]": {"molecular_target": "T1, PfNT1 (Plasmodium falciparum, UniProt Q8IDM6)", "T1 construct": "expressed in transfected cells; host or cells: Xenopus laevis oocytes (stage V-VI), cRNA-injected", "experiment": "cell-based", "assay_type": "cell-based", "conditions": "PfNT1 oocytes, total [3H]CQ transport, normalised to the oocyte type control", "in_short": "(§2)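 Transport measured in Xenopus oocytes expressing the transporters, 1.5 h at 27.5 °C in ND96 pH 5.5 unless noted. For trans-stimulation, VF-6 injected in 25 nL ND96 at pH 5.0–7.0 or Na^+-free (choline) buffer; intracellular levels based on ~400 nL oocyte volume. Ten oocytes per treatment, ≥4 experiments.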"}, "[3]": {"molecular_target": "T2, PfCRT^3D7 (Plasmodium falciparum, UniProt Q8IBZ9)", "T2 sequence (Q8IBZ9 59-398)": "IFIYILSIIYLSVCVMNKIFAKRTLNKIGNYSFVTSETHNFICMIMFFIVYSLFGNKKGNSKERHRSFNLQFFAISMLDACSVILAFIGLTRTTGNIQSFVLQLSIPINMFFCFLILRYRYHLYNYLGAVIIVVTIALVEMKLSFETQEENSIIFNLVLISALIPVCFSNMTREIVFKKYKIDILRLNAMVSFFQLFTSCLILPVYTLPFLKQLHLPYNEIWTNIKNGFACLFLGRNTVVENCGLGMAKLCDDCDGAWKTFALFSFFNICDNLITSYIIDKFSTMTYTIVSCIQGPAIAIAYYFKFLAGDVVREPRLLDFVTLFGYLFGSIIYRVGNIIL", "experiment": "cell-based", "assay_type": "cell-based", "conditions": "PfCRT3D7 oocytes; for Uptake of [3H]CQ (% PfCRT3D7 control), trans-stimulation: total [3H]CQ transport, normalised to the oocyte type control; for PfCRT-mediated [3H]CQ transport, trans-stimulation (% PfCRT3D7 control): normalised to oocyte type control", "in_short": "as §2"}, "[4]": {"molecular_target": "T3, PfCRT^Ecu1110 (Plasmodium falciparum, UniProt Q9N623, A220S/I356L/K76T/N326D)", "T3 sequence (Q9N623 whole entry A220S/I356L/K76T/N326D)": "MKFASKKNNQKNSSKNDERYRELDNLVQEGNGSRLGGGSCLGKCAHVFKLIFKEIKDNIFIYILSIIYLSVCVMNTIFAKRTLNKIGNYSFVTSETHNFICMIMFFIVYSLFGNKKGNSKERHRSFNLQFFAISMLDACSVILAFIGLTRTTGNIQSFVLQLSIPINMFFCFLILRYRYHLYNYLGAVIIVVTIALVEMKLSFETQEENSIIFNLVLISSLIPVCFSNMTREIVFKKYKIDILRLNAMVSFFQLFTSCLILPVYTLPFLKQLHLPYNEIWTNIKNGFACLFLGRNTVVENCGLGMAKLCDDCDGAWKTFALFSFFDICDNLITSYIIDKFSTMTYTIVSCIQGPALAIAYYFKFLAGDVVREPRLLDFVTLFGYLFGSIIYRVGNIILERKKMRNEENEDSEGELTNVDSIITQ", "experiment": "cell-based", "assay_type": "cell-based", "conditions": "for Uptake of [3H]CQ (% PfCRTEcu1110 control), trans-stimulation / PfCRT-mediated [3H]CQ transport, trans-stimulation (% PfCRTEcu1110 control): PfCRTEcu1110 oocytes; for Uptake of [3H]CQ (% PfCRTEcu1110 control), trans-stimulation: total [3H]CQ transport, normalised to the oocyte type control; for PfCRT-mediated [3H]CQ transport, trans-stimulation (% PfCRTEcu1110 control): normalised to oocyte type control; for [3H]CQ transport (% PfCRTDd2 control), trans-stimulation, PfCRTEcu1110: PfCRT-mediated component (background subtracted), sheet title says normalised to PfCRTDd2 control, mean ± SEM, SEM", "in_short": "as §2"}, "[5]": {"molecular_target": "T4, PfCRT^Dd2 (Plasmodium falciparum, UniProt Q9N623, A220S/I356T/K76T/M74I/N326S/N75E/Q271E/R371I)", "T4 sequence (Q9N623 whole entry A220S/I356T/K76T/M74I/N326S/N75E/Q271E/R371I)": "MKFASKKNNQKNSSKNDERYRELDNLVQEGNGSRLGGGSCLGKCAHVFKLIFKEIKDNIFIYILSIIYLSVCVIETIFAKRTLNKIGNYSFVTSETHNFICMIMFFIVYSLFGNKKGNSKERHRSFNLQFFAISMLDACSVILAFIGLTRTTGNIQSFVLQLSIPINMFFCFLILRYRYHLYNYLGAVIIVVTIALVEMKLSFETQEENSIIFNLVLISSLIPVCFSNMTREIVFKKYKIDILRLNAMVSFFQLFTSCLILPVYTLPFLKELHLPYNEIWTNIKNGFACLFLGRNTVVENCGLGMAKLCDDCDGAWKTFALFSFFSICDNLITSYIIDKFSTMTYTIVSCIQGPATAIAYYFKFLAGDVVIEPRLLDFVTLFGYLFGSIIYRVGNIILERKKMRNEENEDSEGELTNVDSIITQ", "experiment": "cell-based", "assay_type": "cell-based", "conditions": "for Uptake of [3H]CQ (% PfCRTDd2 control), trans-stimulation / PfCRT-mediated [3H]CQ transport, trans-stimulation (% PfCRTDd2 control): PfCRTDd2 oocytes; for Uptake of [3H]CQ (% PfCRTDd2 control), trans-stimulation: total [3H]CQ transport, normalised to the oocyte type control; for PfCRT-mediated [3H]CQ transport, trans-stimulation (% PfCRTDd2 control): normalised to oocyte type control; for [3H]CQ transport (% PfCRTDd2 control), trans-stimulation, PfCRTDd2: PfCRT-mediated component (background subtracted), mean ± SEM, SEM", "in_short": "as §2"}, "[6]": {"molecular_target": "T3, PfCRT^Ecu1110", "experiment": "[3H]CQ uptake into Xenopus oocytes, cis-inhibition by unlabelled solute", "assay_type": "cell-based", "conditions": "for Uptake of [3H]CQ (% PfCRTEcu1110 control), cis-inhibition / PfCRT-mediated [3H]CQ transport, cis-inhibition (% PfCRTEcu1110 control): PfCRTEcu1110 oocytes; for Uptake of [3H]CQ (% PfCRTEcu1110 control), cis-inhibition: total [3H]CQ transport, normalised to the oocyte type control; for PfCRT-mediated [3H]CQ transport, cis-inhibition (% PfCRTEcu1110 control): background [3H]CQ accumulation subtracted, normalised to oocyte type control; for [3H]CQ transport (% PfCRTEcu1110 control), cis-inhibition, PfCRTEcu1110: PfCRT-mediated component (background subtracted), sheet title says normalised to PfCRTDd2 control, mean ± SEM, SEM", "in_short": "as §1"}, "[7]": {"molecular_target": "T4, PfCRT^Dd2", "experiment": "[3H]CQ uptake into Xenopus oocytes, cis-inhibition by unlabelled solute", "assay_type": "cell-based", "conditions": "PfCRTDd2 oocytes, background [3H]CQ accumulation subtracted, normalised to oocyte type control", "in_short": "as §1"}, "[8]": {"molecular_target": "T2, PfCRT^3D7", "experiment": "cell-based", "assay_type": "cell-based", "conditions": "PfCRT3D7 oocytes, total [3H]CQ transport, normalised to the oocyte type control", "in_short": "as §1"}, "[9]": {"system": "non-expressing oocytes", "assay_type": "cell-based, Xenopus laevis", "conditions": "non-expressing oocytes, total [3H]CQ transport, normalised to the oocyte type control", "in_short": "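Oocytes (ten per treatment, ≥4 independent frogs/days) were preloaded by injecting VF-6 in 25 nL ND96 at pH 5.0, 5.5, 6.0 or 7.0, or Na^+-free choline buffer, then uptake run 1.5 h, 27.5 °C, ND96 pH 5.5 by default. Internal concentrations assumed ~400 nL oocyte volume.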"}, "[10]": {"conditions": "[test solute]i = 45 mM (30 mM for some solutes due to solubility)"}, "[11]": {"conditions": "[test solute]i = 5 mM (intracellular)"}, "[12]": {"conditions": "[test solute]i = 45 mM (intracellular; 30 mM for some solutes due to solubility)"}, "[13]": {"conditions": "[test solute]i = 5 mM (injected)"}}, "note": "Read-outs that look alike come from different tables or passages of the source."}
{"substance": "PENF [PEF-4]", "values": [{"measurement": "Uptake of [3H]CQ (% non-expressing oocyte control), cis-inhibition", "setting": "[1]; [test solute] = 0.5 mM", "result": "99 ± 5.8 % non-expressing oocyte control"}, {"measurement": "Uptake of [3H]CQ (% non-expressing oocyte control), cis-inhibition", "setting": "[1]; [test solute] = 1 mM", "result": "98 ± 4.6 % non-expressing oocyte control"}, {"measurement": "Uptake of [3H]CQ (% non-expressing oocyte control), cis-inhibition", "setting": "[1]; [test solute] = 2 mM", "result": "99 ± 4.4 % non-expressing oocyte control"}, {"measurement": "Uptake of [3H]CQ (% PfNT1 control), trans-stimulation", "setting": "[2]; [test solute]i = 5 mM", "result": "101 ± 2.2", "unit": "% PfNT1 control"}, {"measurement": "Uptake of [3H]CQ (% PfNT1 control), trans-stimulation", "setting": "[2]; [10]", "result": "99 ± 2.7", "unit": "% PfNT1 control"}, {"measurement": "Uptake of [3H]CQ (% PfCRT3D7 control), trans-stimulation", "setting": "[3]; [test solute]i = 5 mM", "result": "135 ± 6.8", "unit": "% PfCRT3D7 control"}, {"measurement": "Uptake of [3H]CQ (% PfCRT3D7 control), trans-stimulation", "setting": "[3]; [10]", "result": "151 ± 8.0", "unit": "% PfCRT3D7 control"}, {"measurement": "PfCRT-mediated [3H]CQ transport, trans-stimulation (% PfCRT3D7 control)", "setting": "[3]; [11]", "result": "128 ± 3.6", "unit": "% PfCRT3D7 control"}, {"measurement": "PfCRT-mediated [3H]CQ transport, trans-stimulation (% PfCRT3D7 control)", "setting": "[3]; [12]", "result": "145 ± 4.7", "unit": "% PfCRT3D7 control"}, {"measurement": "Uptake of [3H]CQ (% PfCRTEcu1110 control), trans-stimulation", "setting": "[4]; [test solute]i = 5 mM", "result": "121 ± 3.2", "unit": "% PfCRTEcu1110 control"}, {"measurement": "Uptake of [3H]CQ (% PfCRTEcu1110 control), trans-stimulation", "setting": "[4]; [10]", "result": "132 ± 3.7", "unit": "% PfCRTEcu1110 control"}, {"measurement": "PfCRT-mediated [3H]CQ transport, trans-stimulation (% PfCRTEcu1110 control)", "setting": "[4]; [11]", "result": "118 ± 1.1", "unit": "% PfCRTEcu1110 control"}, {"measurement": "PfCRT-mediated [3H]CQ transport, trans-stimulation (% PfCRTEcu1110 control)", "setting": "[4]; [12]", "result": "128 ± 2.0", "unit": "% PfCRTEcu1110 control"}, {"measurement": "[3H]CQ transport (% PfCRTDd2 control), trans-stimulation, PfCRTEcu1110", "setting": "[4]; [13]", "result": "36 ± 1.6", "unit": "% PfCRTEcu1110 control"}, {"measurement": "[3H]CQ transport (% PfCRTDd2 control), trans-stimulation, PfCRTEcu1110", "setting": "[4]; [10]", "result": "39 ± 1.3", "unit": "% PfCRTEcu1110 control"}, {"measurement": "Uptake of [3H]CQ (% PfCRTDd2 control), trans-stimulation", "setting": "[5]; [test solute]i = 5 mM", "result": "102 ± 2.2", "unit": "% PfCRTDd2 control"}, {"measurement": "Uptake of [3H]CQ (% PfCRTDd2 control), trans-stimulation", "setting": "[5]; [10]", "result": "99 ± 2.8", "unit": "% PfCRTDd2 control"}, {"measurement": "PfCRT-mediated [3H]CQ transport, trans-stimulation (% PfCRTDd2 control)", "setting": "[5]; [11]", "result": "100 ± 3.2", "unit": "% PfCRTDd2 control"}, {"measurement": "PfCRT-mediated [3H]CQ transport, trans-stimulation (% PfCRTDd2 control)", "setting": "[5]; [12]", "result": "97 ± 3.2", "unit": "% PfCRTDd2 control"}, {"measurement": "[3H]CQ transport (% PfCRTDd2 control), trans-stimulation, PfCRTDd2", "setting": "[5]; [13]", "result": "100 ± 3.2", "unit": "% PfCRTDd2 control"}, {"measurement": "[3H]CQ transport (% PfCRTDd2 control), trans-stimulation, PfCRTDd2", "setting": "[5]; [10]", "result": "97 ± 3.2", "unit": "% PfCRTDd2 control"}, {"measurement": "Uptake of [3H]CQ (% PfCRTEcu1110 control), cis-inhibition", "setting": "[6]; [test solute] = 0.5 mM", "result": "55 ± 4.2", "unit": "% PfCRTEcu1110 control"}, {"measurement": "Uptake of [3H]CQ (% PfCRTEcu1110 control), cis-inhibition", "setting": "[6]; [test solute] = 1 mM", "result": "45 ± 4.7", "unit": "% PfCRTEcu1110 control"}, {"measurement": "Uptake of [3H]CQ (% PfCRTEcu1110 control), cis-inhibition", "setting": "[6]; [test solute] = 2 mM", "result": "34 ± 3.4", "unit": "% PfCRTEcu1110 control"}, {"measurement": "PfCRT-mediated [3H]CQ transport, cis-inhibition (% PfCRTEcu1110 control)", "setting": "[6]; [test solute] = 0.5 mM", "result": "49 ± 2.6", "unit": "% PfCRTEcu1110 control"}, {"measurement": "PfCRT-mediated [3H]CQ transport, cis-inhibition (% PfCRTEcu1110 control)", "setting": "[6]; [test solute] = 1 mM", "result": "40 ± 3.5", "unit": "% PfCRTEcu1110 control"}, {"measurement": "PfCRT-mediated [3H]CQ transport, cis-inhibition (% PfCRTEcu1110 control)", "setting": "[6]; [test solute] = 2 mM", "result": "28 ± 2.1", "unit": "% PfCRTEcu1110 control"}, {"measurement": "[3H]CQ transport (% PfCRTEcu1110 control), cis-inhibition, PfCRTEcu1110", "setting": "[6]; [test solute] = 0.5 mM", "result": "15 ± 0.1", "unit": "% PfCRTEcu1110 control"}, {"measurement": "[3H]CQ transport (% PfCRTEcu1110 control), cis-inhibition, PfCRTEcu1110", "setting": "[6]; [test solute] = 1 mM", "result": "13 ± 0.3", "unit": "% PfCRTEcu1110 control"}, {"measurement": "[3H]CQ transport (% PfCRTEcu1110 control), cis-inhibition, PfCRTEcu1110", "setting": "[6]; [test solute] = 2 mM", "result": "9.0 ± 0.01", "unit": "% PfCRTEcu1110 control"}, {"measurement": "PfCRT-mediated [3H]CQ transport, cis-inhibition (% PfCRTDd2 control)", "setting": "[7]; [test solute] = 0.5 mM", "result": "52 ± 2.0", "unit": "% PfCRTDd2 control"}, {"measurement": "PfCRT-mediated [3H]CQ transport, cis-inhibition (% PfCRTDd2 control)", "setting": "[7]; [test solute] = 1 mM", "result": "37 ± 2.1", "unit": "% PfCRTDd2 control"}, {"measurement": "PfCRT-mediated [3H]CQ transport, cis-inhibition (% PfCRTDd2 control)", "setting": "[7]; [test solute] = 2 mM", "result": "17 ± 0.3", "unit": "% PfCRTDd2 control"}, {"measurement": "Uptake of [3H]CQ (% PfCRT3D7 control), cis-inhibition", "setting": "[8]; [test solute] = 0.5 mM", "result": "100 ± 5.3", "unit": "% PfCRT3D7 control"}, {"measurement": "Uptake of [3H]CQ (% PfCRT3D7 control), cis-inhibition", "setting": "[8]; [test solute] = 1 mM", "result": "98 ± 3.5", "unit": "% PfCRT3D7 control"}, {"measurement": "Uptake of [3H]CQ (% PfCRT3D7 control), cis-inhibition", "setting": "[8]; [test solute] = 2 mM", "result": "100 ± 4.4", "unit": "% PfCRT3D7 control"}, {"measurement": "Uptake of [3H]CQ (% non-expressing oocyte control), trans-stimulation", "setting": "[9]; [test solute]i = 5 mM", "result": "97 ± 3.5 % non-expressing oocyte control"}, {"measurement": "Uptake of [3H]CQ (% non-expressing oocyte control), trans-stimulation", "setting": "[9]; [10]", "result": "100 ± 3.2 % non-expressing oocyte control"}]}
